Strand notation (5' to 3'): a small letter for the sugar, then the base; units joined by * are phosphorothioate-linked, units joined directly phosphodiester-linked; [ ] holds rarer units or linkages, { } end groups; capitals alone tell only the bases. k = constrained ethyl (cEt); [5mC] = 5-methylcytosine; d = 2'-deoxy (DNA)
System: Yap1 mRNA
Experiment: Dose-dependent inhibition of human Yap1 in A-431 cells (Example 6, 5,000 cells per well, RTS4814)
Assay type: cell-based
Settings: for Yap1 mRNA, % UTC: 48 hours; for % UTC 148 nM / % UTC 444 nM / % UTC 1333 nM / % UTC 4000 nM: approximately 48 hours
Experimental: Modified oligonucleotides described in the studies above were tested at various doses in A-431 cells. Cultured A-431 cells at a density of 5,000 cells per well were treated using free uptake with modified oligonucleotides diluted to concentrations described in the tables below. After approximately 48 hours, Yap1 mRNA levels were measured as previously described using the Human Yap1 primer-probe set RTS4814. Yap1 mRNA levels were normalized to total RNA content, as measured by RIBOGREEN®. Results are presented in the tables below as percent control of the amount of Yap1 mRNA relative to untreated control cells (% UTC). IC50s were calculated using a linear regression on a log/linear plot of the data in excel.

[1] = Table 55, 148 nM, free uptake, A-431 cells 5,000 cells per well, RTS4814
[2] = Table 55, 444 nM, free uptake, A-431 cells 5,000 cells per well, RTS4814
[3] = Table 55, 1333 nM, free uptake, A-431 cells 5,000 cells per well, RTS4814
[4] = Table 55, 4000 nM, free uptake, A-431 cells 5,000 cells per well, RTS4814
[5] = Table 55, A-431 cells 5,000 cells per well, free uptake, RTS4814
[6] = Table 54, A-431 cells, Yap1 mRNA, linear regression on a log/linear plot
[7] = Table 54, A-431 cells, free uptake, 148 nM, RTS4814
[8] = Table 54, A-431 cells, free uptake, 444 nM, RTS4814
[9] = Table 54, A-431 cells, free uptake, 1333 nM, RTS4814
[10] = Table 54, A-431 cells, free uptake, 4000 nM, RTS4814
[11] = Table 53, A-431 cells, Yap1 mRNA, linear regression on a log/linear plot
[12] = Table 53, A-431 cells, free uptake, 148 nM, RTS4814
[13] = Table 53, A-431 cells, free uptake, 444 nM, RTS4814
[14] = Table 53, A-431 cells, free uptake, 1333 nM, RTS4814
[15] = Table 53, A-431 cells, free uptake, 4000 nM, RTS4814

Substance	Yap1 mRNA, % UTC [1]	Yap1 mRNA, % UTC [2]	Yap1 mRNA, % UTC [3]	Yap1 mRNA, % UTC [4]	IC50 [5]	IC50 [6]	% UTC 148 nM [7]	% UTC 444 nM [8]	% UTC 1333 nM [9]	% UTC 4000 nM [10]	IC50 [11]	% UTC 148 nM [12]	% UTC 444 nM [13]	% UTC 1333 nM [14]	% UTC 4000 nM [15]
716489 (antisense kA*kG*kT*dT*dA*dA*dT*dT*d[5mC]*dA*dT*dG*d[5mC]*kT*k[5mC]*kG) [compound 716489]	84 % UTC	83 % UTC	69 % UTC	61 % UTC	> 4 µM	–	–	–	–	–	–	–	–	–	–
716479 (antisense kG*kA*kA*d[5mC]*dA*dA*dT*d[5mC]*dT*dT*dG*dA*dA*kG*kG*k[5mC]) [compound 716479]	88 % UTC	78 % UTC	55 % UTC	57 % UTC	> 4 µM	–	–	–	–	–	–	–	–	–	–
715435 (kG*kG*kT*d[5mC]*dT*dT*dG*dT*dT*d[5mC]*dT*dT*dA*kT*kG*kG; antisense) [compound 715435]	–	–	–	–	–	3.4 µM	80 % UTC	67 % UTC	61 % UTC	48 % UTC	–	–	–	–	–
716505 (antisense kG*kA*kT*dT*dT*dA*dA*dT*d[5mC]*dT*dT*dT*d[5mC]*kT*kG*k[5mC]) [compound 716505]	–	–	–	–	–	> 4 µM	83 % UTC	103 % UTC	82 % UTC	66 % UTC	–	–	–	–	–
716493 (antisense kA*k[5mC]*kA*dT*dT*dG*dA*dA*dA*dG*dA*d[5mC]*d[5mC]*k[5mC]*kT*kT) [compound 716493]	–	–	–	–	–	> 4 µM	95 % UTC	97 % UTC	86 % UTC	72 % UTC	–	–	–	–	–
715471 (kT*kA*kT*d[5mC]*dT*dA*dG*d[5mC]*dT*dT*dG*dG*dT*kG*kG*k[5mC]; antisense) [compound 715471]	–	–	–	–	–	> 4 µM	82 % UTC	103 % UTC	105 % UTC	79 % UTC	–	–	–	–	–
716484 (antisense k[5mC]*kA*k[5mC]*dT*dT*dT*dT*d[5mC]*d[5mC]*dA*dG*d[5mC]*dT*kA*kA*k[5mC]) [compound 716484]	–	–	–	–	–	> 4 µM	88 % UTC	78 % UTC	80 % UTC	55 % UTC	–	–	–	–	–
716496 (antisense kG*kA*kA*dG*dA*dG*dA*dT*dT*dT*dT*dA*dT*kG*k[5mC]*k[5mC]) [compound 716496]	–	–	–	–	–	> 4 µM	74 % UTC	87 % UTC	64 % UTC	49 % UTC	–	–	–	–	–
716543 (antisense kT*kA*kT*dT*dT*dG*dT*dA*dG*d[5mC]*dA*dA*dA*kG*kT*k[5mC]) [compound 716543]	62 % UTC	99 % UTC	79 % UTC	64 % UTC	> 4 µM	–	–	–	–	–	–	–	–	–	–
715478 (kA*k[5mC]*k[5mC]*dA*dT*dT*dA*dT*dT*dA*d[5mC]*dT*d[5mC]*k[5mC]*kT*kG; antisense) [compound 715478]	76 % UTC	56 % UTC	32 % UTC	18 % UTC	0.6 µM	0.6 µM	72 % UTC	59 % UTC	31 % UTC	18 % UTC	0.4 µM	70 % UTC	47 % UTC	29 % UTC	16 % UTC
716503 (antisense kT*kT*kA*dT*dT*dA*dT*dG*dA*dG*dT*dG*dA*kT*k[5mC]*kA) [compound 716503]	91 % UTC	80 % UTC	67 % UTC	64 % UTC	> 4 µM	–	–	–	–	–	–	–	–	–	–
716554 (antisense kA*kT*kG*d[5mC]*dT*dT*dG*d[5mC]*dG*dA*dG*dG*dA*kT*kA*kA) [compound 716554]	87 % UTC	90 % UTC	76 % UTC	50 % UTC	> 4 µM	–	–	–	–	–	–	–	–	–	–
716524 (antisense kA*k[5mC]*kT*dG*dA*dG*dG*dT*dA*dT*dA*dA*d[5mC]*kT*kG*kG) [compound 716524]	103 % UTC	92 % UTC	96 % UTC	62 % UTC	> 4 µM	–	–	–	–	–	–	–	–	–	–
715510 (kA*kT*kT*dT*dG*d[5mC]*dT*dG*dT*dG*d[5mC]*dT*dG*kG*kG*kA; antisense) [compound 715510]	–	–	–	–	–	–	–	–	–	–	2.4 µM	88 % UTC	67 % UTC	59 % UTC	45 % UTC
716370 (k[5mC]*kA*kG*dT*dG*d[5mC]*d[5mC]*dT*dG*d[5mC]*dA*dT*d[5mC]*kA*kG*kT; antisense) [compound 716370]	–	–	–	–	–	> 4 µM	81 % UTC	79 % UTC	69 % UTC	49 % UTC	–	–	–	–	–
715523 (kA*kT*k[5mC]*dA*dG*dT*dA*d[5mC]*dT*dG*dG*d[5mC]*d[5mC]*kT*kA*kT; antisense) [compound 715523]	–	–	–	–	–	–	–	–	–	–	3.2 µM	100 % UTC	62 % UTC	75 % UTC	44 % UTC
716500 (antisense kA*kA*k[5mC]*dT*dT*d[5mC]*dT*dT*dA*d[5mC]*dT*dT*d[5mC]*k[5mC]*kA*kA) [compound 716500]	88 % UTC	96 % UTC	79 % UTC	46 % UTC	> 4 µM	–	–	–	–	–	–	–	–	–	–
715577 (kG*k[5mC]*kA*dT*dT*d[5mC]*dA*d[5mC]*dA*dG*dA*dG*dT*kT*kA*kA; antisense) [compound 715577]	–	–	–	–	–	–	–	–	–	–	> 4 µM	87 % UTC	76 % UTC	73 % UTC	45 % UTC
716548 (antisense kG*kA*kG*dT*dT*dT*d[5mC]*dA*dA*d[5mC]*dA*d[5mC]*dT*kG*kA*kT) [compound 716548]	99 % UTC	89 % UTC	79 % UTC	67 % UTC	> 4 µM	–	–	–	–	–	–	–	–	–	–
716407 (antisense k[5mC]*kT*kT*dA*dG*dT*d[5mC]*d[5mC]*dA*d[5mC]*dT*dG*dT*k[5mC]*kT*kG) [compound 716407]	84 % UTC	75 % UTC	72 % UTC	39 % UTC	3 µM	–	–	–	–	–	–	–	–	–	–
715423 (k[5mC]*k[5mC]*kA*dT*dG*dT*dT*dG*dT*dT*dG*dT*d[5mC]*kT*kG*kA; antisense) [compound 715423]	–	–	–	–	–	–	–	–	–	–	> 4 µM	83 % UTC	91 % UTC	80 % UTC	57 % UTC
715434 (kT*k[5mC]*kT*dT*dG*dT*dT*d[5mC]*dT*dT*dA*dT*dG*kG*kT*kT; antisense) [compound 715434]	–	–	–	–	–	–	–	–	–	–	2.8 µM	84 % UTC	69 % UTC	64 % UTC	43 % UTC

Source: patent US11214803B2, “Modulators of YAP1 expression” (Ionis Pharmaceuticals, Inc., priority 2019, dated 2022)
